Results taken from patent US11912695B2, “Benzodiazepine derivatives as RSV inhibitors” (ENANTA PHARMACEUTICALS, INC., priority 2019, dated 2024).

What was measured:
[1] = test system: Human RSV-A (“Long” strain); experiment: RSV-A assay (CPE, ATPlite) in Hep-2 cells; format: cell-based; conditions: human respiratory syncytial virus, 120 h, MOI 0.1, 5-day incubation, ATPlite readout
Description: Hep-2 cells, (originally derived from tumors grown in irradiated-cortisonised weanling rats that had been injected with epidermoid carcinoma tissue from a person's larynx, but later found to be indistinguishable from HeLa cells by PCR DNA analysis), were used for the culturing of genotype A, “Long” strain RSV. Flasks were inoculated with RSV and viral stocks were collected once cytopathic effect (CPE) was greater than 90%. Viral stocks in 25% sucrose media were snap frozen using liquid nitrogen to increase viral stability. Viral stock titers were quantified by tissue culture infectious dose 50% (TCID50) using 8,000 cells per well and 3-fold viral dilutions across a 96-well plate, cultured for 4 days. Viral stock titers were also quantified by a plaque forming unit assay, as described elsewhere.
Following extensive parameter testing, the final assay is run as follows: Hep-2 cells are seeded into the inner 60 wells of a 96-well plate at 8,000 cells per well in a volume of 50 μL using Growth Media (DMEM without phenol red, 1% L-Glut, 1% Penn/Strep, 1% nonessential amino acids, 10% heat-inactivated FBS). 2-fold serial dilutions of control and test compounds are added to the wells in duplicate in a total volume of 25 μL. Viral stock is then added to the wells at a multiplicity of infection (MOI) of 0.1 in a volume of 25 μL, bringing the total volume of each well to 100 μL. The MOI is calculated using the PFU/mL, or TCID50 if unavailable. Each 96-well plate has a control column of 6 wells with cells and virus but no compound (negative control, max CPE), a column with cells but no compound or virus (positive control, minimum CPE), and a column with no cells or virus or compound (background plate/reagent control). The control wells with cells but no virus are given an additional 25 μL of growth media containing an equal quantity of sucrose as those wells receiving the viral stock in order to keep consistent in media and volume conditions. The outer wells of the plate are filled with 125 μL of moat media (DMEM, 1% Penn/Strep) to act as a thermal and evaporative moat around the test wells. Following a 5-day incubation period, the plates are read using ATPlite (50 μL added per well), which quantifies the amount of ATP (a measure of cell health) present in each well. Assay plates are read using the Envision luminometer. In parallel, cytotoxicity is examined on an additional 96-well plate treated in an identical manner, but substituting the 25 μL of viral stock for 25 μL of growth media. […] EC50 ranges are as follows: A<0.4 μM; B 0.4-0.8 μM; C>0.8 μM.

[2] = test system: Human RSV-B (genotype B, strain 9320); experiment: RSV-B assay (qPCR or ATPlite) in A549 cells; format: cell-based; conditions: human respiratory syncytial virus, 144 h, strain 9320, MOI 0.5, 6 days post infection, qPCR or ATPlite readout
Description: Hep-2 cells, (originally derived from tumors grown in irradiated-cortisonised weanling rats that had been injected with epidermoid carcinoma tissue from a person's larynx, but later found to be indistinguishable from HeLa cells by PCR DNA analysis), were used for the culturing of genotype B, strain 9320. Flasks were inoculated with RSV-B and viral stocks were collected once cytopathic effect (CPE) was greater than 90%. Viral stocks in 25% sucrose media were snap frozen using liquid nitrogen to increase viral stability. Viral stock titers were quantified by tissue culture infectious dose 50% (TCID50) using 8,000 cells per well and 5-fold viral dilutions across a 96-well plate, cultured for 4 days. Viral stock titers were also quantified by a plaque forming unit assay, as described elsewhere.
The assay is run as follows: A549 cells (originally derived through explant culture from a person's carcinomatous lung tissue) are seeded into the inner 60 wells of a 96-well plate at 3,000 cells per well in a volume of 50 μL using A549 growth media (F-12K Media, 1% Penn/Strep, 1% nonessential amino acids, 10% heat-inactivated FBS). 2-fold serial dilutions of control and test compounds are added to the wells in duplicate in a total volume of 25 μL. Viral stock is then added to the wells at a multiplicity of infection (MOI) of 0.5 in a volume of 25 μL, bringing the total volume of each well to 100 μL. The MOI is calculated using the PFU/mL, or TCID50 if unavailable. Each 96-well plate has a control column of 6 wells with cells and virus but no compound (negative control, max CPE), a column with cells but no compound or virus (positive control, minimum CPE), and a column with no cells or virus or compound (background plate/reagent control). The control wells with cells but no virus are given an additional 25 μL of growth media containing an equal quantity of sucrose as those wells receiving the viral stock in order to keep consistent in media and volume conditions. The outer wells of the plate are filled with 125 μL of moat media (DMEM, 1% Penn/Strep) to act as a thermal and evaporative moat around the test wells. 6 days post infection, the plates are read using qPCR or ATP lite (50 μL added per well), which quantifies the amount of ATP (a measure of cell health) present in each well. Assay plates treated with APTlite are read using the Envision luminometer. […] EC50 ranges are as follows: A<0.4 μM; B 0.4-0.8 μM; C>0.8 μM.

| SMILES | EC50 [1] | EC50 [2] |
| --- | --- | --- |
| CCc1ncc(-c2sc(C3CC3)nc2-c2nnc(N[C@H]3N=C(c4ccccc4)c4cccc(F)c4NC3=O)o2)cn1 [Example 43] | < 400 nM | < 400 nM |
| Cc1cnc(-c2nnc(N[C@H]3N=C(c4ccccc4)c4ccccc4NC3=O)o2)c(-c2cnc(C3CC3)nc2)c1 [Example 99] | < 400 nM | < 400 nM |
| C=Cc1ncc(-c2cc(C(F)(F)F)cnc2-c2nnc(NC3N=C(c4ccccc4)c4ccccc4NC3=O)o2)cn1 (centres unmarked) [Example 18] | 400 to 800 nM | < 400 nM |
| O=C1Nc2ccccc2C(c2ccccc2)=NC1Nc1nnc(-c2ncccc2-c2cnc(C3CC3)nc2)o1 (centres unmarked) [Example 16] | 400 to 800 nM | < 400 nM |
| CCc1ncc(-c2sc(C3CC3)nc2-c2nnc(N[C@H]3N=C(c4ccccc4)c4ccccc4NC3=O)o2)cn1 [Example 50] | < 400 nM | < 400 nM |
| Cc1ncc(-c2cc(C(F)(F)F)cnc2-c2nnc(N[C@H]3N=C(c4ccccc4)c4cccc(F)c4NC3=O)o2)cn1 [Example 27] | < 400 nM | < 400 nM |
| Cc1nc(-c2nnc(N[C@H]3N=C(c4ccccc4)c4cccc(F)c4NC3=O)o2)c(-c2cnc(C3CC3)nc2)s1 [Example 41] | < 400 nM | < 400 nM |
| CCc1ncc(-c2cc(C(F)(F)F)cnc2-c2nnc(NC3N=C(c4ccccc4)c4ccccc4NC3=O)o2)cn1 (centres unmarked) [Example 8] | < 400 nM | < 400 nM |
| CC(F)(F)c1ncc(-c2cc(C(F)(F)F)cnc2-c2nnc(NC3N=C(c4ccccc4)c4ccccc4NC3=O)o2)cn1 (centres unmarked) [Example 11] | > 800 nM | 400 to 800 nM |
| O=C1Nc2ccccc2C(c2ccccc2)=NC1Nc1nnc(-c2ncc(C(F)(F)F)cc2-c2cnc(CO)nc2)o1 (centres unmarked) [Example 9] | > 800 nM | > 800 nM |
| O=C1Nc2c(F)cccc2C(c2ccccc2)=N[C@@H]1Nc1nnc(-c2ncc(C3CC3)cc2-c2cnc(C3CC3)nc2)o1 [Example 76] | < 400 nM | < 400 nM |
| O=C1Nc2c(F)cccc2C(c2ccccc2)=N[C@H]1Nc1nnc(-c2nc(C3CCC3)sc2-c2cnc(C3CC3)nc2)o1 [Example 64] | > 800 nM | < 400 nM |
| CCc1ncc(-c2sc(C3CCC3)nc2-c2nnc(N[C@H]3N=C(c4ccccc4)c4cccc(F)c4NC3=O)o2)cn1 [Example 58] | < 400 nM | < 400 nM |
| O=C1Nc2ccccc2C(c2ccccc2)=NC1Nc1nnc(-c2ncc(C(F)(F)F)cc2-c2cnc(Cl)nc2)o1 (centres unmarked) [Example 14, 3-((5-(3-(2-chloropyrimidin-5-yl)-5-(trifluoromethyl)pyridin-2-yl)-1,3,4-oxadiazol-2-yl)amino)-5-phenyl-1,3-dihydro-2H-benzo[e][1,4]diazepin-2-one] | > 800 nM | > 800 nM |
| CCc1ncc(-c2cccnc2-c2nnc(NC3N=C(c4ccccc4)c4ccccc4NC3=O)o2)cn1 (centres unmarked) [Example 15] | > 800 nM | < 400 nM |
| CCc1ncc(-c2sc(C3(C(F)(F)F)CC3)nc2-c2nnc(N[C@@H]3N=C(c4ccccc4)c4ccccc4NC3=O)o2)cn1 [Example 70] | > 800 nM | > 800 nM |
| Cc1ncc(-c2sc(C(F)(F)F)nc2-c2nnc(NC3N=C(c4ccccc4)c4ccccc4NC3=O)o2)cn1 (centres unmarked) [Example 33] | < 400 nM | < 400 nM |
| CCc1nc(-c2nnc(N[C@H]3N=C(c4ccccc4)c4cccc(F)c4NC3=O)o2)c(-c2cnc(C)nc2)s1 [Example 52] | < 400 nM | < 400 nM |
| O=C1Nc2ccccc2C(c2ccccc2)=N[C@@H]1Nc1nnc(-c2ncc(C3CC3)cc2-c2cnc(C3CC3)nc2)o1 [Example 77] | < 400 nM | < 400 nM |

| SMILES | EC50 [1] | EC50 [2] |
| --- | --- | --- |
| CCc1nc(-c2nnc(N[C@H]3N=C(c4ccccc4)c4cccc(F)c4NC3=O)o2)c(-c2cnc(C3CC3)nc2)s1 [Example 54] | < 400 nM | < 400 nM |
| CCc1ncc(-c2sc(C(F)(F)F)nc2-c2nnc(N[C@H]3N=C(c4ccccc4)c4cccc(F)c4NC3=O)o2)cn1 [Example 32] | < 400 nM | < 400 nM |
| Cc1nc(-c2nnc(N[C@@H]3N=C(c4ccccc4)c4cccc(F)c4NC3=O)o2)c(-c2cnc(C3CC3)nc2)s1 [Example 40] | < 400 nM | < 400 nM |
| Cc1ncc(-c2sc(C3(C(F)(F)F)CC3)nc2-c2nnc(N[C@H]3N=C(c4ccccc4)c4cccc(F)c4NC3=O)o2)cn1 [Example 73] | < 400 nM | < 400 nM |
| CCc1ncc(-c2sc(C)nc2-c2nnc(N[C@H]3N=C(c4ccccc4)c4cccc(F)c4NC3=O)o2)cn1 [Example 36] | < 400 nM | < 400 nM |
| O=C1Nc2ccccc2C(c2ccccc2)=N[C@@H]1Nc1nnc(-c2ncc(C(F)(F)F)cc2-c2cnc(C3CC3)nc2)o1 [Example 25] | < 400 nM | < 400 nM |
| O=C1Nc2ccccc2C(c2ccccc2)=NC1Nc1nnc(-c2ncc(C(F)(F)F)cc2-c2cnc(C(F)(F)F)nc2)o1 (centres unmarked) [Example 10] | > 800 nM | > 800 nM |
| CCc1ncc(-c2sc(C3(C)CC3)nc2-c2nnc(N[C@@H]3N=C(c4ccccc4)c4cccc(F)c4NC3=O)o2)cn1 [Example 68] | < 400 nM | < 400 nM |
| CCc1ncc(-c2sc(C3(C(F)(F)F)CC3)nc2-c2nnc(N[C@@H]3N=C(c4ccccc4)c4cccc(F)c4NC3=O)o2)cn1 [Example 62] | 400 to 800 nM | < 400 nM |
| O=C1Nc2ccccc2C(c2ccccc2)=N[C@@H]1Nc1nnc(-c2ncc(CO)cc2-c2cnc(C3CC3)nc2)o1 [Example 97] | < 400 nM | < 400 nM |
| O=C1Nc2ccccc2C(c2ccccc2)=NC1Nc1nnc(-c2ncc(C(F)(F)F)cc2-c2cnc(F)nc2)o1 (centres unmarked) [Example 17] | > 800 nM | > 800 nM |
| CCc1ncc(-c2sc(C(F)(F)F)nc2-c2nnc(NC3N=C(c4ccccc4)c4ccccc4NC3=O)o2)cn1 (centres unmarked) [Example 35] | < 400 nM | < 400 nM |
| O=C1Nc2c(F)cccc2C(c2ccccc2)=N[C@@H]1Nc1nnc(-c2ncc(C(F)(F)F)cc2-c2cnc(C3CC3)nc2)o1 [Example 24] | < 400 nM | < 400 nM |
| Cc1ncc(-c2sc(C3(C)CC3)nc2-c2nnc(N[C@H]3N=C(c4ccccc4)c4cccc(F)c4NC3=O)o2)cn1 [Example 67] | < 400 nM | < 400 nM |
| Cc1ncc(-c2sc(C3CCC3)nc2-c2nnc(N[C@H]3N=C(c4ccccc4)c4cccc(F)c4NC3=O)o2)cn1 [Example 61] | < 400 nM | < 400 nM |
| Cc1ncc(-c2sc(C3(C(F)(F)F)CC3)nc2-c2nnc(N[C@@H]3N=C(c4ccccc4)c4cccc(F)c4NC3=O)o2)cn1 [Example 72] | > 800 nM | < 400 nM |
| CCc1ncc(-c2sc(C3CC3)nc2-c2nnc(N[C@@H]3N=C(c4ccccc4)c4ccccc4NC3=O)o2)cn1 [Example 49] | 400 to 800 nM | < 400 nM |
| O=C1Nc2c(F)cccc2C(c2ccccc2)=N[C@H]1Nc1nnc(-c2nc(C3CC3)sc2-c2cnc(C3CC3)nc2)o1 [Example 47] | < 400 nM | < 400 nM |
